Experimental data taken from ChEMBL document CHEMBL3414500, “New polycyclic dual inhibitors of the wild type and the V27A mutant M2 channel of the influenza A virus with unexpected binding mode” (Eur J Med Chem, 2015).

Target: Matrix protein 2 (Influenza A virus (A/Udorn/307/1972(H3N2)), UniProt P0DOF8, V27A)

| Compound | IC50 |
| --- | --- |
| C1=C[C@H]2[C@H]3[C@H]4[C@@H]1[C@@H]1[C@H]2[C@@H]2[C@H]3[C@@H]3CNC[C@@H]3[C@H]4[C@H]12 | 185 µM |
| C1C[C@H]2[C@H]3[C@H]4[C@@H]1[C@@H]1[C@H]2[C@@H]2[C@H]3[C@@H]3CNC[C@@H]3[C@H]4[C@H]12 | 17.2 µM |
| N=C(N)N1C[C@@H]2[C@H](C1)[C@@H]1[C@@H]3[C@H]4CC[C@H]5[C@@H]3[C@H]2[C@H]2[C@@H]5[C@@H]4[C@@H]12 | 32.2 µM |
